Laboratory results taken from ChEMBL document CHEMBL3351766, “Asymmetric binding to NS5A by daclatasvir (BMS-790052) and analogs suggests two novel modes of HCV inhibition” (J Med Chem, 2014).
Blank lines part the entries; values can stand above or below the molecule they belong to.

Assays:
Hepatitis C virus [1] = assay: Antiviral activity against wild type HCV genotype 1b assessed as replication level; type: functional, Hepacivirus hominis; details: for EC50: Hepatitis C virus, genotype 1b
Hepatitis C virus [2] = assay: Antiviral activity against HCV genotype 1b expressing NS5A Y93H mutant assessed as replication level; type: functional, Hepacivirus hominis; details: for EC50: Hepatitis C virus, genotype 1b
Hepatitis C virus [3] = assay: Antiviral activity against HCV genotype 1b expressing NS5A L31F mutant assessed as replication level
Hepatitis C virus [4] = assay: Antiviral activity against HCV genotype 1b expressing NS5A L31V mutant assessed as replication level; type: functional, Hepacivirus hominis
Hepatitis C virus [5] = assay: Antiviral activity against HCV genotype 1b expressing NS5A L31M mutant assessed as replication level; type: functional, Hepacivirus hominis
Hepatitis C virus [6] = assay: Antiviral activity against HCV genotype 1b expressing NS5A L31V/Y93H mutant assessed as replication level; type: functional, Hepacivirus hominis
Hepatitis C virus [7] = assay: Antiviral activity against HCV genotype 1b expressing NS5A L31M/Y93H mutant assessed as replication level; type: functional, Hepacivirus hominis

- EC50 (Hepatitis C virus [1]): 0.023 nM
Compound: COC(=O)N[C@H](C(=O)N1C[C@@H](N=[N+]=[N-])C[C@H]1c1ncc(-c2ccc(-c3ccc(-c4cnc([C@@H]5C[C@H](N=[N+]=[N-])CN5C(=O)[C@@H](NC(=O)OC)C(C)C)[nH]4)cc3)cc2)[nH]1)C(C)C

- EC50 (Hepatitis C virus [1]): 0.0118 nM
Compound: COC(=O)N[C@H](C(=O)N1C[C@H](n2cc(C(=O)OC)nn2)C[C@H]1c1ncc(-c2ccc(-c3ccc(-c4cnc([C@@H]5C[C@@H](n6cc(C(=O)OC)nn6)CN5C(=O)[C@@H](NC(=O)OC)C(C)C)[nH]4)cc3)cc2)[nH]1)C(C)C

- EC50 (Hepatitis C virus [1]): 30 nM
Compound: COC(=O)N[C@H](C(=O)N1CCC[C@H]1c1ncc(-c2ccc(Oc3ccc(-c4cnc([C@@H]5CCCN5C(=O)[C@@H](NC(=O)OC)C(C)C)[nH]4)cc3)cc2)[nH]1)C(C)C

- EC50 (Hepatitis C virus [1]): 0.0184 nM
Compound: COC(=O)N[C@H](C(=O)N1C[C@H](N=[N+]=[N-])C[C@H]1c1ncc(-c2ccc(-c3ccc(-c4cnc([C@@H]5C[C@@H](N=[N+]=[N-])CN5C(=O)[C@@H](NC(=O)OC)C(C)C)[nH]4)cc3)cc2)[nH]1)C(C)C

- EC50 (Hepatitis C virus [1]): > 10 nM
Compound: COC(=O)N[C@H](C(=O)N1C[C@@H](n2cc(C(=O)OC)nn2)C[C@H]1c1ncc(-c2ccc(-c3ccc(-c4cnc([C@@H]5C[C@H](n6cc(C(=O)OC)nn6)CN5C(=O)[C@@H](NC(=O)OC)C(C)C)[nH]4)cc3)cc2)[nH]1)C(C)C

Continued, molecule first:

Compound: COC(=O)N[C@H](C(=O)N1CCC[C@H]1c1ncc(-c2ccc(N=[N+]=[N-])cc2)[nH]1)C(C)C
- EC50 (Hepatitis C virus [2]): 8 nM

Compound: COC(=O)N[C@H](C(=O)N1CCC[C@H]1c1nc(Br)c(-c2ccc(N=[N+]=[N-])cc2)[nH]1)C(C)C
- EC50 (Hepatitis C virus [3]): 0.7 nM

Compound: COC(=O)N[C@H](C(=O)N1CCC[C@H]1c1ncc(-c2ccccc2)[nH]1)C(C)C
- EC50 (Hepatitis C virus [1]): > 1000 nM

Compound: COC(=O)N[C@H](C(=O)N1CCC[C@H]1c1ncc(-c2ccc(-c3ccc(-c4cnc([C@@H]5CCCN5C(=O)[C@@H](NC(=O)OC)C(C)C)[nH]4)cc3)cc2)[nH]1)C(C)C [DACLATASVIR]
- Activity (Hepatitis C virus [4]): 158%
- EC50 (Hepatitis C virus [4]; Hepatitis C virus, genotype 1b): 0.0717 nM
- Activity (Hepatitis C virus [5]): 99%
- EC50 (Hepatitis C virus [5]; Hepatitis C virus, genotype 1b): 0.0084 nM
- Activity (Hepatitis C virus [2]): 27%
- EC50 (Hepatitis C virus [2]): 0.0623 nM
- Activity (Hepatitis C virus [6]): 50%
- EC50 (Hepatitis C virus [6]; Hepatitis C virus, genotype 1b): 38 nM
- Activity (Hepatitis C virus [1]): 100%
- EC50 (Hepatitis C virus [1]): 0.0026 nM
- Activity (Hepatitis C virus [7]): 70%
- EC50 (Hepatitis C virus [7]; Hepatitis C virus, genotype 1b): 18.3 nM

Compound: COC(=O)N[C@H](C(=O)N1CCC[C@H]1c1nc(Br)c(-c2ccc(Oc3ccc(-c4[nH]c([C@@H]5CCCN5C(=O)[C@@H](NC(=O)OC)C(C)C)nc4Br)cc3)cc2)[nH]1)C(C)C
- EC50 (Hepatitis C virus [1]): 0.05 nM
